Reference: the NIST ThermoML archive (doi:10.1021/acs.jced.6b00718)
Numbers after ± are expanded uncertainties.

How the values were obtained:
[1] = for viscosity / mass density: 101 kPa; for viscosity / mass density / electrical conductivity: Liquid; for viscosity: Falling or rolling sphere viscometry; for mass density: Vibrating tube method; for electrical conductivity: 101.33 kPa, Alternating current cell with electrodes; for Normal melting temperature: DTA
[2] = xn = mol fraction of the nth substance listed; conditions: 101 kPa, Liquid, x1 = 1; for viscosity: Falling or rolling sphere viscometry; for mass density: Vibrating tube method

CCCC[N+]1(C)CCCC1.O=S(=O)([N-]S(=O)(=O)C(F)(F)F)C(F)(F)F
[1]
Conditions | Normal melting temperature [°C] | electrical conductivity [S/m] | mass density [kg/m3] | viscosity [mPa·s]
293.15 K | – | – | 1399.8 ± 2.8 | 98.72 ± 2.4
293.4 K | – | 0.22 ± 0.006 | – | –
296.1 K | – | 0.249 ± 0.006 | – | –
298.15 K | – | – | 1395.2 ± 2.8 | 77.66 ± 1.3
299.3 K | – | 0.285 ± 0.008 | – | –
303.15 K | – | – | 1390.7 ± 2.8 | 62.29 ± 0.6
303.3 K | – | 0.334 ± 0.008 | – | –
309.3 K | – | 0.419 ± 0.01 | – | –
313.15 K | – | – | 1381.7 ± 2.8 | 41.87 ± 0.42
313.2 K | – | 0.481 ± 0.012 | – | –
320 K | – | 0.6 ± 0.014 | – | –
323.15 K | – | – | 1372.8 ± 2.8 | 29.61 ± 0.29
323.2 K | – | 0.66 ± 0.016 | – | –
333.15 K | – | – | 1363.8 ± 2.8 | 21.82 ± 0.22
333.5 K | – | 0.88 ± 0.02 | – | –
Metastable crystal | -20 ± 2 | – | – | –

CCCC[N+]1(C)CCCC1.O=S(=O)([N-]S(=O)(=O)C(F)(F)F)C(F)(F)F + CCCC#N
[2]
Conditions | mass density [kg/m3] | viscosity [mPa·s]
293.15 K | 1399.8 ± 2.8 | 98.72 ± 6.3
298.15 K | 1395.2 ± 2.8 | 77.66 ± 4.8
303.15 K | 1390.7 ± 2.8 | 62.29 ± 3.8
313.15 K | 1381.7 ± 2.8 | 41.87 ± 2.5
323.15 K | 1372.8 ± 2.8 | 29.61 ± 1.8
333.15 K | 1363.8 ± 2.8 | 21.82 ± 1.3

CCCC[N+]1(C)CCCC1.O=S(=O)([N-]S(=O)(=O)C(F)(F)F)C(F)(F)F + N#CCCCC#N
[2]
Conditions | mass density [kg/m3] | viscosity [mPa·s]
293.15 K | 1399.8 ± 2.8 | 98.72 ± 6.3
298.15 K | 1395.2 ± 2.8 | 77.66 ± 4.8
303.15 K | 1390.7 ± 2.8 | 62.29 ± 3.8
313.15 K | 1381.7 ± 2.8 | 41.87 ± 2.5
323.15 K | 1372.8 ± 2.8 | 29.61 ± 1.8
333.15 K | 1363.8 ± 2.8 | 21.82 ± 1.3

CCCC[N+]1(C)CCCC1.O=S(=O)([N-]S(=O)(=O)C(F)(F)F)C(F)(F)F + N#CCCCCC#N
[2]
Conditions | mass density [kg/m3] | viscosity [mPa·s]
293.15 K | 1399.8 ± 2.8 | 98.72 ± 6.3
298.15 K | 1395.2 ± 2.8 | 77.66 ± 4.8
303.15 K | 1390.7 ± 2.8 | 62.29 ± 3.8
313.15 K | 1381.7 ± 2.8 | 41.87 ± 2.5
323.15 K | 1372.8 ± 2.8 | 29.61 ± 1.8
333.15 K | 1363.8 ± 2.8 | 21.82 ± 1.3

CCCC#N [butanenitrile]
[1]
Conditions | mass density [kg/m3] | viscosity [mPa·s]
293.15 K | 791.1 ± 1.6 | 0.88 ± 0.05
298.15 K | 786.4 ± 1.6 | 0.86 ± 0.05
303.15 K | 781.8 ± 1.6 | 0.84 ± 0.05
313.15 K | 772.4 ± 1.6 | 0.81 ± 0.05
323.15 K | 763 ± 1.5 | 0.78 ± 0.05
333.15 K | 753.5 ± 1.5 | 0.75 ± 0.05

N#CCCCCC#N [hexanedinitrile]
[1]
Conditions | Normal melting temperature [°C] | mass density [kg/m3] | viscosity [mPa·s]
293.15 K | – | 962.3 ± 1.9 | 7.17 ± 0.44
298.15 K | – | 958.6 ± 1.9 | 6.31 ± 0.38
303.15 K | – | 954.8 ± 1.9 | 5.53 ± 0.34
313.15 K | – | 947.2 ± 1.9 | 4.54 ± 0.28
323.15 K | – | 939.8 ± 1.9 | 3.73 ± 0.23
333.15 K | – | 932.3 ± 1.9 | 3.02 ± 0.18
Crystal | 6.2 ± 2 | – | –

N#CCCCC#N [pentanedinitrile]
[1]
Conditions | mass density [kg/m3] | viscosity [mPa·s]
293.15 K | 987 ± 2 | 6.97 ± 0.07
298.15 K | 983.1 ± 2 | 6.12 ± 0.06
303.15 K | 979.1 ± 2 | 5.39 ± 0.05
313.15 K | 971.2 ± 2 | 4.25 ± 0.04
323.15 K | 963.4 ± 1.9 | 3.47 ± 0.03
333.15 K | 955.6 ± 1.9 | 2.88 ± 0.03
